According to ChEMBL document CHEMBL1909046, “DrugMatrix in vitro pharmacology data”:

What was measured:
[1] = molecular target: Sodium-dependent noradrenaline transporter (Homo sapiens, UniProt P23975); test: DRUGMATRIX: Norepinephrine Transporter radioligand binding (ligand: [125I] RTI-55); type: cell membranes, MDCK, Membrane; conditions: mdck; Not Active = under 50% inhibition at 10 µM
[2] = molecular target: T1, Cytochrome P450 1A2 (Homo sapiens, UniProt P05177); also: in other assays of this panel Not Active means under 50% inhibition at 10 µM
T1 sequence (P05177 whole entry): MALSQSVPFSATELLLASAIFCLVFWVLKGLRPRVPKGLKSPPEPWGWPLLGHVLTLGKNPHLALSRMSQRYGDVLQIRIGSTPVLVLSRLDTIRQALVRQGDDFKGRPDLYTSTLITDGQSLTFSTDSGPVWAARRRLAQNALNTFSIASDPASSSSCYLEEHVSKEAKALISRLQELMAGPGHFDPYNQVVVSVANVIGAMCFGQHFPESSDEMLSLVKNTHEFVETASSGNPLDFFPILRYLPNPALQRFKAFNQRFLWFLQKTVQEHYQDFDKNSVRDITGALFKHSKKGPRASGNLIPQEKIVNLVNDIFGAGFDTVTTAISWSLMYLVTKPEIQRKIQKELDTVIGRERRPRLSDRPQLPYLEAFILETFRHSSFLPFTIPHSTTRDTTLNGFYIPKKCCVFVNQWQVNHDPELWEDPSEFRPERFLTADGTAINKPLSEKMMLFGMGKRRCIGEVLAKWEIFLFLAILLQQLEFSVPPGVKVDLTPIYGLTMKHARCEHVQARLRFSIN

[3] = molecular target: T2, Androgen receptor (Rattus norvegicus, UniProt P15207); also: in other assays of this panel Not Active means under 50% inhibition at 10 µM
T2 sequence (P15207 whole entry): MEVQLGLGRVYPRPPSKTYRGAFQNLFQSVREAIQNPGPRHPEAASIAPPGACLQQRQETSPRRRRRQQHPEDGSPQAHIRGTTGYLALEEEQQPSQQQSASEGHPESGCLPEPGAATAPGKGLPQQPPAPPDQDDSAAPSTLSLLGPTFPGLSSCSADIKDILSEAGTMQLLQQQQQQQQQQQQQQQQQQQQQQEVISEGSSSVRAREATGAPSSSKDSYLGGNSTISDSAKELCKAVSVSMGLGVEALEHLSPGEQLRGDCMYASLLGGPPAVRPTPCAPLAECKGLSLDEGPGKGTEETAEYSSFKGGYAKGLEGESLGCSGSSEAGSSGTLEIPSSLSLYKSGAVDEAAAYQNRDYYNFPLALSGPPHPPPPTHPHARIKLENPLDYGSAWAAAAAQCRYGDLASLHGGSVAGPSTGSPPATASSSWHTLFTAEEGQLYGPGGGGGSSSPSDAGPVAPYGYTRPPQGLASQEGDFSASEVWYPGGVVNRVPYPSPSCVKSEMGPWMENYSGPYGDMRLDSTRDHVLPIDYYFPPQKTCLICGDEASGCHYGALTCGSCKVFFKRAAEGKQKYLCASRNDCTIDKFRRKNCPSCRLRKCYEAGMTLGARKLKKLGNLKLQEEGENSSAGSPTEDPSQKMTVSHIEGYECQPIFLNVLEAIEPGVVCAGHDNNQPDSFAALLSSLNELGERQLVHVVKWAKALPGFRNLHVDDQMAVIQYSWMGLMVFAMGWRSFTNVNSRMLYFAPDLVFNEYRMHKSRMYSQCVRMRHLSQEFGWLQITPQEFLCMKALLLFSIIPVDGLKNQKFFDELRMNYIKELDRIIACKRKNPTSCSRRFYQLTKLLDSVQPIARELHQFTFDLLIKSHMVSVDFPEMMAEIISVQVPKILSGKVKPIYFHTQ

[4] = molecular target: T3, Glucocorticoid receptor (Homo sapiens, UniProt P04150); test: biochemical; also: in other assays of this panel Not Active means under 50% inhibition at 10 µM
T3 sequence (P04150 whole entry): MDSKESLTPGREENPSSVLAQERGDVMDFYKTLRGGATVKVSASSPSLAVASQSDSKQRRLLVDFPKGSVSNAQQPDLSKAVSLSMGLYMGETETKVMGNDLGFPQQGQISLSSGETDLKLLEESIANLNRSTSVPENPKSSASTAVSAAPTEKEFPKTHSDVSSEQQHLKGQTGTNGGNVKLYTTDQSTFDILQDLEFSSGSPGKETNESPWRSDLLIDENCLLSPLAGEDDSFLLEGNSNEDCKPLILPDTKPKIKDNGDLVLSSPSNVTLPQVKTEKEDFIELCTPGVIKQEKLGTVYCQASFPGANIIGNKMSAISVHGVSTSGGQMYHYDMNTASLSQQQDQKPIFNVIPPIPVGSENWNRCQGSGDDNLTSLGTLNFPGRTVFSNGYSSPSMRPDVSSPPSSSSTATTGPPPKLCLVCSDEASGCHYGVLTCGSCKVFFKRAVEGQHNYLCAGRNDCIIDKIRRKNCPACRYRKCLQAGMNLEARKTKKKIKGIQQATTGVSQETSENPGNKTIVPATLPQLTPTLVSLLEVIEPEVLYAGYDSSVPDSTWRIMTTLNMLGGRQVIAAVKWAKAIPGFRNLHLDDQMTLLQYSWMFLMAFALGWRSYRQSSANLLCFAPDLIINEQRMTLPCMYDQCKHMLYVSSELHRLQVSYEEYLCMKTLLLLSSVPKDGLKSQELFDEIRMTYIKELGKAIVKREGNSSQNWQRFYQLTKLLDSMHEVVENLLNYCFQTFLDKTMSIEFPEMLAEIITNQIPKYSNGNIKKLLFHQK

[5] = molecular target: Cytochrome P450 2C9 (Homo sapiens, UniProt P11712); also: in other assays of this panel Not Active means under 50% inhibition at 10 µM
[6] = molecular target: T3, Glucocorticoid receptor; conditions: hela s3
[7] = molecular target: Cytochrome P450 2C19 (Homo sapiens, UniProt P33261); also: in other assays of this panel Not Active means under 50% inhibition at 10 µM
[8] = molecular target: T2, Androgen receptor; remark: listed apart in the source

Chain of Sodium-dependent noradrenaline transporter (P23975 whole entry): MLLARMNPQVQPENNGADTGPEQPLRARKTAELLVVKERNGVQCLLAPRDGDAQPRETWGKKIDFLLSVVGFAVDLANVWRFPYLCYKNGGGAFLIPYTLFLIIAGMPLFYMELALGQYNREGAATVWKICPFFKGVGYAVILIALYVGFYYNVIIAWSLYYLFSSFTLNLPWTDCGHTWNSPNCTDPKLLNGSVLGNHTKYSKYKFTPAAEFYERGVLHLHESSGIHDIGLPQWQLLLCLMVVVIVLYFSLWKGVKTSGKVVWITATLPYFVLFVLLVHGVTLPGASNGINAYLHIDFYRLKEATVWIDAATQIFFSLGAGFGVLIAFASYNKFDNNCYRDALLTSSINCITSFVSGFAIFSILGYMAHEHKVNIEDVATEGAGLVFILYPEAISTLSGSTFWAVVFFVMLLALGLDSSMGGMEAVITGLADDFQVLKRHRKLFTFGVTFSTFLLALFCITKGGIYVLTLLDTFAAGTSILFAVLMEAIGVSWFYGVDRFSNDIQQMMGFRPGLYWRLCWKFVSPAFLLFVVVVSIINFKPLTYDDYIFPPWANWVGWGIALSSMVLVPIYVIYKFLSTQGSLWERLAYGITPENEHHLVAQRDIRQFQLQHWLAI
Chain of Cytochrome P450 2C9 (P11712 whole entry): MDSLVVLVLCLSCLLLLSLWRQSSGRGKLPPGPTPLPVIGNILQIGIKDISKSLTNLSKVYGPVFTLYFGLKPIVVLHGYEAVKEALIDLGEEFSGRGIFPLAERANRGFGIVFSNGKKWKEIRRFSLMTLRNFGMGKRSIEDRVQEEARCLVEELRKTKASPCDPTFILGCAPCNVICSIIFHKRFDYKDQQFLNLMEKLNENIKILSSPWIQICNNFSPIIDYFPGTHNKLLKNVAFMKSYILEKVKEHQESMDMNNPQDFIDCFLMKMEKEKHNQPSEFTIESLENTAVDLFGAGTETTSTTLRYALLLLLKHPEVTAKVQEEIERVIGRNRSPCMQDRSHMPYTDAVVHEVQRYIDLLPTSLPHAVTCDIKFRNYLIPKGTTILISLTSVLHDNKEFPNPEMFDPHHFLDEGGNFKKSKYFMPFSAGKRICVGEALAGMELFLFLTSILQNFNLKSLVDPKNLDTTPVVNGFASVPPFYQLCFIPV
Chain of Cytochrome P450 2C19 (P33261 whole entry): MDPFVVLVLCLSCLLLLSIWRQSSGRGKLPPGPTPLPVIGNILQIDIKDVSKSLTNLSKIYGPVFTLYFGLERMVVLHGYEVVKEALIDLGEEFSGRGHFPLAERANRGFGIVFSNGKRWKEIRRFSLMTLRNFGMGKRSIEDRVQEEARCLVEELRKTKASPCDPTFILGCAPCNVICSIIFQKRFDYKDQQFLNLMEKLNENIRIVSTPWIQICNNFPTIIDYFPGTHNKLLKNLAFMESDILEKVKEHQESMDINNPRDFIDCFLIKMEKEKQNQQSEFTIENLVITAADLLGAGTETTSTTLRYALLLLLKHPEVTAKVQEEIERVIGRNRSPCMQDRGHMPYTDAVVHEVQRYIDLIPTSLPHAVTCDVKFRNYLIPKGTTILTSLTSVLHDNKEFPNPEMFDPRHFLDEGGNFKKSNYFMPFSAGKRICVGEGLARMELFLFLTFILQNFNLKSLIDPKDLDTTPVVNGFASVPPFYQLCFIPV

Compound	IC50 [1]	IC50 [2] [nM]	IC50 [3] [nM]	Ki [3] [nM]	IC50 [4] [nM]	Ki [4] [nM]	IC50 [5] [nM]	IC50 [6]	IC50 [7] [nM]	IC50 [8]
CC(=O)Nc1cccc(O)c1 [METACETAMOL]	Not Active	2000	–	–	–	–	–	–	–	–
S=C=Nc1cccc2ccccc12 [1-NAPHTHYLISOTHIOCYANATE]	Not Active	1000	25500	17000	15400	7000	–	–	–	–
Cc1ccccc1C(=O)N1CCC(Cc2ccccc2)CC1	Not Active	–	–	–	–	–	1000	Not Active	600	Not Active
C[C@](O)(CS(=O)(=O)c1ccc(F)cc1)C(=O)Nc1ccc(C#N)c(C(F)(F)F)c1 [(R)-BICALUTAMIDE]	–	–	–	–	–	–	–	Not Active	1000	–
C#C[C@]1(OC(C)=O)CC[C@H]2[C@@H]3CCC4=CC(=O)CC[C@@H]4[C@H]3CC[C@@]21C [NORETHINDRONE ACETATE]	Not Active	–	–	–	646	293	–	–	800	–
COc1ccccc1C(=O)N1CCC(Cc2ccccc2)CC1	Not Active	–	–	–	–	–	2000	Not Active	800	Not Active
CCOC(=O)C1=C(C)NC(C)=C(C(=O)OC)C1c1cccc([N+](=O)[O-])c1 (configuration not stated) [NITRENDIPINE]	Not Active	–	–	–	–	–	300	–	3000	–
